# Entries after “also recorded” stand apart in the source; their conditions may differ. Like-named read-outs stand apart in the source and are kept apart here.
# Columns and labels:
# [1] = for Prediction (BBB permeation class): PAMPA-BBB
# [2] = PAMPA-BBB; cited from earlier work
# Recombinant human MAO-A = molecular target: T1, Recombinant human MAO-A (Homo sapiens, UniProt P21397); assay: biochemical; conditions: for remaining activity at 10 µM: 10 µM compound, mean ± standard error of duplicate or triple studies, read-out: Residual Activity at 10 µM (%) MAO-A
# T1 construct: purchased Sigma-Aldrich (St. Louis, MO, USA)
# T1 sequence (P21397 1-527): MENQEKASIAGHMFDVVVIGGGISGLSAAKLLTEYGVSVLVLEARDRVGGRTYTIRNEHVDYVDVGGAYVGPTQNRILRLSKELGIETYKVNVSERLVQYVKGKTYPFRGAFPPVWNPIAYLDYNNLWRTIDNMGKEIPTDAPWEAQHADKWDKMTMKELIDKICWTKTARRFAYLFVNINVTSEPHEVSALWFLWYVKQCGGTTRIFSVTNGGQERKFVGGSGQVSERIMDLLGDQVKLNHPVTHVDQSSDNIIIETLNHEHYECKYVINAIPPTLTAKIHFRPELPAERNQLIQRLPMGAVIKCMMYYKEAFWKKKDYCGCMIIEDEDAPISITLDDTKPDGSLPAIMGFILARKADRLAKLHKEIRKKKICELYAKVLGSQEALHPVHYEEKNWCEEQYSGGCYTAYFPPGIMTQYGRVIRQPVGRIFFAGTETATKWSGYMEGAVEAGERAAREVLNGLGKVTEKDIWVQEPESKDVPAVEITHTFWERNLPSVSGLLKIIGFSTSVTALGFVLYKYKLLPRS
# Description: (§1) The IC50 values were determined by measuring the residual activity at different concentrations of the compounds and by using GraphPad Prism software 5.0. […] BACE1 inhibitory activities were tested by the BACE1 activity detection kit. The assay method was described previously. Recombinant human MAO-A and MAO-B, AChE from Electrophorus electricus, BChE from equine serum, BACE1, and their substrates and reference inhibitors were purchased from Sigma-Aldrich (St. Louis, MO, USA).
# (§2) Lineweaver–Burk plots were used to examine the inhibition patterns, and secondary plots were used to calculate the Ki values with three inhibitor dosages.
# MAO-B [3] = molecular target: T2, MAO-B (Homo sapiens, UniProt P27338); assay: biochemical; type: biochemical; conditions: for remaining activity at 10 µM: 10 µM compound, mean ± standard error of duplicate or triple studies, read-out: Residual Activity at 10 µM (%) MAO-B; for SI (selectivity index for MAO-B compared with MAO-A): MAO-B versus MAO-A
# T2 construct: purchased Sigma-Aldrich (St. Louis, MO, USA)
# T2 sequence (P27338 1-520): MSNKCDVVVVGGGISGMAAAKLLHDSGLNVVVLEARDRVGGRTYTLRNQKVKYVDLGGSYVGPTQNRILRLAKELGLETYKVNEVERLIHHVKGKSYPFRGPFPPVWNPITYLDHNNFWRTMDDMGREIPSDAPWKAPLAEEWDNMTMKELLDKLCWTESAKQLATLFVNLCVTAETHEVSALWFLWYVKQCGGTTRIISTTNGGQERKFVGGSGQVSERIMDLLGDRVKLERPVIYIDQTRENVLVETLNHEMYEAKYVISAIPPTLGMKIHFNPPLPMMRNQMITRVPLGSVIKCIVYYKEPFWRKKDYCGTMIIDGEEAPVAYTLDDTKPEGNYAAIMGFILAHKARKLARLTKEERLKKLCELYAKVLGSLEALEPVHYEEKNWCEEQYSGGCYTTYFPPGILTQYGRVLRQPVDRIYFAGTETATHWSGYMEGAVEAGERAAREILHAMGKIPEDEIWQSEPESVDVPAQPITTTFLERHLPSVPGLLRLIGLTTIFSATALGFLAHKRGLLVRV
# Description: as §1, with “USA). […]” for “USA).”
# MAO-B [4] = molecular target: T2, MAO-B; assay: Kinetic study, Lineweaver–Burk and secondary plots; type: biochemical
# Source text: Five different substrate concentrations were used in the kinetics.
# as §2
# MAO-B [5] = molecular target: T2, MAO-B; assay: Inhibition reversibility by dialysis; type: biochemical
# Source text: The relative activity of undialyzed (AU) as well as dialyzed (AD) samples were compared to establish reversibility profiles.
# To determine reversibility patterns, the activities of dialyzed (AD) and undialyzed (AU) specimens were compared.
# in vitro = conditions: PAMPA
# [6] = kynuramine 0.06 mM, highest concentration 40 µM, read-out: IC50 (µM) MAO-A
# [7] = benzylamine 0.3 mM, highest concentration 40 µM, read-out: IC50 (µM) MAO-B
Structure (SMILES),Prediction (BBB permeation class) [1],remaining activity at 10 µM (Recombinant human MAO-A) [%],IC50 (Recombinant human MAO-A; [6]) [µM],remaining activity at 10 µM (MAO-B [3]) [%],SI (selectivity index for MAO-B compared with MAO-A) (MAO-B [3]),IC50 (MAO-B [3]; [7]) [µM],also measured
"NCCc1ccc(O)c(O)c1 [Dopamine, reference compound]","CNS- (CNS-: Pe (10^−6 cm/s) <2, less BBB permeable)",–,–,–,–,–,Bibliography Pe (×10^−6 cm/s) [2]: 0.2 ×10^−6 cm/s
"CCn1cc(C(=O)O)c(=O)c2cc(F)c(N3CCNC(C)C3)c(F)c21 (stereo not drawn) [Lomefloxacin, reference compound]","CNS- (CNS-: Pe (10^−6 cm/s) <2, less BBB permeable)",–,–,–,–,–,–
"CC(=O)[C@H]1CC[C@H]2[C@@H]3CCC4=CC(=O)CC[C@]4(C)[C@H]3CC[C@]12C [Progesterone, reference compound]","CNS+ (CNS+, Pe (10^−6 cm/s) >4, good BBB permeable)",–,–,–,–,–,–
COc1cccc(N2CCN(c3ccc(=O)n(CC(=O)NN=Cc4ccccc4)n3)CC2)c1 [TR1],–,82 ± 1.2,17.3 ± 1.2,80.5 ± 1.01,<0.43,> 40,–
COc1cccc(N2CCN(c3ccc(=O)n(CC(=O)NN=Cc4ccc(Cl)cc4)n3)CC2)c1 [TR2],"CNS+ (CNS+, Pe (10^−6 cm/s) >4, good BBB permeable)",65.8 ± 0.66,–,-4.37 ± 4.13,–,–,"IC50 (Recombinant human MAO-A): 22.9 ± 0.24 µM; IC50 (MAO-B [3]): 0.27 ± 0.02 µM; Fold increase of MAO-B inhibitory potency compared to the basic structure TR1 (MAO-B [3]; versus TR1): 148.1 fold; Ki (MAO-B [4]): 230 ± 4 nM; Inhibition type for MAO-B (MAO-B [4]; Lineweaver–Burk plots): competitive inhibitors; Reversibility of MAO-B inhibition (MAO-B [5]; dialysis, AU versus AD): reversible inhibitors; Relative activity of dialyzed (AD) sample (MAO-B [5]; preincubation 30 min at ~2 × IC50, dialyzed): 75.0%; Relative activity of undialyzed (AU) sample (MAO-B [5]; preincubation 30 min at ~2 × IC50, undialyzed): 28.0%; BBB permeation in words ([1]; PAMPA): tendency to traverse the blood–brain barrier; also recorded: good CNS permeabilities; Papp (in vitro): 9.33 ± 0.33 ×10⁻⁶ cm/s"
COc1cccc(N2CCN(c3ccc(=O)n(CC(=O)NN=Cc4ccc(F)cc4)n3)CC2)c1 [TR3],–,71.66 ± 0.71,19.7 ± 0.3,20.1 ± 1.15,9.31,2.11 ± 0.51,–
COc1ccc(C=NNC(=O)Cn2nc(N3CCN(c4cccc(OC)c4)CC3)ccc2=O)cc1 [TR4],–,61 ± 3.54,16.5 ± 1.66,88.6 ± 8.61,<0.41,> 40,–
COc1cccc(N2CCN(c3ccc(=O)n(CC(=O)NN=Cc4ccc(C)cc4)n3)CC2)c1 [TR5],–,72.8 ± 1.02,18.19 ± 0.09,45.6 ± 2.56,4.12,4.42 ± 0.23,–
COc1cccc(N2CCN(c3ccc(=O)n(CC(=O)NN=Cc4ccc(Br)cc4)n3)CC2)c1 [TR6],–,51.7 ± 4.55,12.33 ± 0.11,70.2 ± 3.8,0.81,15.1 ± 0.18,–

# — article PMC9230784, “Development of a Novel Class of Pyridazinone Derivatives as Selective MAO-B Inhibitors” (Molecules, 2022)
